Source: patent US9133105B2, “Transcription factor modulators” (C & C BIOPHARMA, LLC, priority 2013, dated 2015)

Experiments:
[1] = molecular target: MEF2D and HDAC4 protein interactions (Homo sapiens (Human), UniProt Q14814); assay: Mammalian two-hybrid assay (GAL4-MEF2D / HDAC4-VP16 luciferase reporter); format: cell-based; details: for Relative Activity, I / IC50 / Inhibition of MEF2D/HDAC4 interactions (in words): HeLa cells; for Relative Activity, I: test compound 10 μM overnight, ratio X/Y versus DMSO control, expressed in percentile, low = strong inhibition; for IC50: concentration when X/Y equals 50; for Group: class by relative activity I at 10 μM; for Inhibition of MEF2D/HDAC4 interactions (in words): two-hybrid assay
From the text: Detection of MEF2D and HDAC4 interactions. In this mammalian two-hybrid assay, HDAC4 and MEF2D proteins were used as representative members of their respective protein families because the protein-protein interactions involved in the recruitment of class IIa HDACs by MEF2 were highly conserved. Two separate DNA constructs were made with MEF2D fused with the GAL4 DNA binding domain (GAL4-MEF2D) and with the MEF2-binding motif of HDAC4 (AA 155-220) fused with the viral transactivator VP-16 (HDAC4-VP16) (FIG. 1). Human epithelial carcinoma cells (HeLa) were co-transfected with the two DNA constructs (GAL4-MEF2D and HDAC4-VP16) and a reporter plasmid (Gal4Luc). […] MEF2D and HDAC4 protein interactions were detected as a result of the GAL4-MEF2D and HDAC4-VP16 protein complex binding a DNA promoter on the reporter plasmid (Gal4Luc) and driving cellular expression of a luciferase gene (FIG. 1). The measured luciferase protein signal was proportional to the amount of MEF2D and HDAC4 protein interactions occurring with the cell.
The relatively stronger signal from the GAL4VP16 positive control construct was probably due to the fact that the activation domain of VP16 was covalently linked to GAL4, whereas in the mammalian two-hybrid assay it was recruited by protein-protein interactions between HDAC4 and MEF2 (FIG. 2). This assay permitted the detection of the interactions between HDAC4 and MEF2D with minimal interference from endogenous factors. The HDAC4 fragment lacked the catalytic domain so that the deacetylase activity was excluded from the assay.
Detection of inhibition of MEF2D and HDAC4 interactions. Next, the assay was used to test whether the compounds could disrupt the interactions between MEF2D and HDAC4. After co-expressing the GAL4-MEF2D and HDAC4-VP16 DNA constructs and reporter plasmid, the HeLa cells were treated with a test compound (10 μM) overnight. Cells transfected with the positive control GAL4VP16 fusion construct and reporter plasmid were also treated with the test compound (10 μM) overnight. As another control, DMSO was added (but kept below 0.2% V/V) to cells transfected with the positive GAL4VP16 fusion construct or the GAL4-MEF2D and HDAC4-VP16 DNA constructs. A luciferase assay was performed as described above according to the manufacturer's protocol (Promega). The luciferase response was normalized against the Renilla Luciferase as an internal control.
The relative activity and IC50 calculations. […] The relative activity, I, was the ratio of former to later, i.e. X/Y, expressed in percentile. […] The IC50 was the concentration of the compounds when X/Y equals 50.

Nalm-6 leukemia cells = assay: Inhibition of Nalm-6 leukemia cell growth (CellTiter-Glo); format: cell-based; details: 72 hours treatment; for IC50: Homo sapiens, NALM-6
Protocol: Treatment of cells. Nalm-6 leukemia cells were grown to the logarithmic growth phase and seeded into 24-well plates. Plated cells were incubated at 37° C. in a 5% CO2 humidified incubator for 24 hours and treated with various concentrations of compounds. Treated cells were further incubated for 72 hours and then were examined for cell proliferation. Cell proliferation was determined using the CellTiter-Glo Luminescence Cell Viability assay (Promega Corporation, Madison, Wis.) according to the manufacturer's protocol. The calculated inhibition rate was determined with the following formula: Inhibition rate (%)=(1−Luminescence of experimental group/Luminescence of control group)×100. The 1050 was the calculated concentration of a compound needed to inhibit half of the maximum cell growth (equivalent to cell growth in control group) based on the corresponding dose-response curve under the described experimental conditions.

MEF2D and HDAC4 protein interactions, sequence (Q14814 whole entry, species assumed, the tested form may be a part): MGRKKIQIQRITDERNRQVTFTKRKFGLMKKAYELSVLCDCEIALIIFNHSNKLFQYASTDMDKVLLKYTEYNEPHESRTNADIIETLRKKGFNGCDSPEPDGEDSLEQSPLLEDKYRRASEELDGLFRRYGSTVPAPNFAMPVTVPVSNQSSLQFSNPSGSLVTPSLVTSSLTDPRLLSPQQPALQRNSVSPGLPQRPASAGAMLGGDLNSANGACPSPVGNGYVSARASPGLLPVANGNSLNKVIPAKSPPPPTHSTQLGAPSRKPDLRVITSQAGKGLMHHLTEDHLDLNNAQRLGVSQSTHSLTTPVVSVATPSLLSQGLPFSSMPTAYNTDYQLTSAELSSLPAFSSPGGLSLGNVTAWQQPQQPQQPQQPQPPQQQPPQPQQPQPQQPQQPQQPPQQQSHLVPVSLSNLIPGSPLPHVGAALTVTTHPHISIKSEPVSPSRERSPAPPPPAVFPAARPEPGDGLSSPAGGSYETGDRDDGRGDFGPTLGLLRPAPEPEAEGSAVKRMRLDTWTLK

| Compound | Relative Activity, I [1] | IC50 [1] [nM] | Group [1] | IC50 (Nalm-6 leukemia cells) [nM] | Inhibition of MEF2D/HDAC4 interactions (in words) [1] | Nalm-6 leukemia cell growth inhibition (in words) (Nalm-6 leukemia cells) |
| --- | --- | --- | --- | --- | --- | --- |
| Nc1ccccc1NC(=O)CCCCCC(=O)Nc1cncc(Br)c1 [CC7, N^1-(2-aminophenyl)-N^7-(5-bromopyridin-3-yl)heptanediamide] | 5.7 | 110 | A (A (I < 22 included)) | 1360 |  |  |
| Nc1ccccc1NC(=O)CCCCCC(=O)Nc1ccccc1Br [CC6, N^1-(2-aminophenyl)-N^7-(2-bromophenyl)heptanediamide] | 62.6 |  | C (C (50 < I < 100 included)) | 2050 | weaker inhibition | strong growth inhibition |
| Nc1ccccc1NC(=O)CCCCCC(=O)NCc1cccnc1 [CC1, N^1-(2-aminophenyl)-N^7-(pyridin-3-ylmethyl)heptanediamide] | 79.2 |  | C (C (50 < I < 100 included)) | > 10000 | mild inhibitory effect | mild inhibitory effect |
| Nc1ccccc1NC(=O)CCCCCNC(=O)c1ccc(Br)cc1 [CC5, N-(6-((2-aminophenyl)amino)-6-oxohexyl)-4-bromobenzamide] | 3.6 | 70 | A (A (I < 22 included)) | 1380 |  |  |
| Nc1ccccc1NC(=O)CCCCCC(=O)Nc1ccc(O)cc1 [CC3, N^1-(2-aminophenyl)-N^7-(4-hydroxyphenyl)heptanediamide] | 5.4 | 100 | A (A (I < 22 included)) | 2610 |  |  |
| Nc1ccccc1NC(=O)CCCCCC(=O)Nc1cccc(O)c1 [CC2, N^1-(2-aminophenyl)-N^7-(3-hydroxyphenyl)heptanediamide] | 4.7 | 90 | A (A (I < 22 included)) | 1460 |  |  |
| Nc1ccncc1NC(=O)CCCCCC(=O)Nc1cccc(Br)c1 [CC4, N^1-(4-aminopyridin-3-yl)-N^7-(3-bromophenyl)heptanediamide] | 79.5 |  | C (C (50 < I < 100 included)) | > 10000 | mild inhibitory effect | mild inhibitory effect |
